Source: patent US10080748B2, “Use of flap inhibitors to reduce neuroinflammation mediated injury in the central nervous system” (Bioscience Pharma Partners, LLC, priority 2014, dated 2018)
Counter-ions that a name gives are not always drawn. Like-named read-outs stand apart in the source and are kept apart here.

Legend:
[1] = Brain and plasma levels 30 minutes after intraperitoneal administration; type: in vivo, rat; conditions: intraperitoneal 10 mg/kg in 20% DMSO/saline; 30 minutes post-dosing
Procedure: The rats were injected intraperitoneally with MK-591 (10 mg/kg in 20% DMSO/saline solution). At 30 minutes post-dosing, blood was collected from anesthetized animals using a heparanized needle and plasma was separated from blood by centrifugation. The animals were then perfused with saline, while still under anesthesia, to remove drug in the blood of the cerebrovasculature. After perfusion the animals were euthanized and brain hemispheres were rapidly removed. Both plasma and brain tissue samples were frozen in liquid nitrogen followed by storage at −80° C. Drug levels in the peripheral plasma and brain were assessed using a validated tandem RP-LC/MS/MS platform. […] Using the conversion of 1 ml=1 gm. The total volume of blood was 2 ml (or […]). The total weight of the brain hemisphere (minus cerebellum) is […]. Values are expressed in ng of MK-591/mg tissue.

[2] = cited from earlier work
[3] = test system: mice subjected to CHI (mTBI model); experiment: GFAP and Iba-1 immunohistochemical staining, mouse closed head injury (CHI) model; type: in vivo; conditions: 5 mg/kg IP once daily for 6 days after CHI; 7 dpi
[4] = Brain and plasma levels 30 minutes after intranasal administration; type: in vivo, rat; conditions: intranasal 60 micrograms/32 ul lipid carrier, 30 minutes post-dosing
Procedure: For intranasal delivery and subsequent tissue collection, rats were anesthetized with 3.5% isoflurane and placed in a supine position on top of a heating pad. The quinoline-indole FLAP inhibitor MK-591, 60 micrograms (μg) formulated with a lipid carrier was administered using a P20 pipette. Specifically, 4 μl drops were formed at the pipette tip and lowered to alternating nostrils every two minutes until a total of eight 4 μl drops were administered. At 30 minutes after the start of intranasal delivery, blood was collected from the heart, and rats were transcardially perfused with 60 ml ice-cold 0.9% NaCl followed by 360 ml 4% paraformaldehyde at 15 ml/minute. Brain tissues were dissected into anatomical regions on ice, weighed, snap-frozen in liquid N2, and stored at −70° C. until analysis. The levels of MK-591 in tissues and plasma were measured by tandem mass spectroscopy.
The MK-591 was formulated in a lipid carrier solution as described above. […] The rats were briefly anesthetized with 3.5% isoflurane and intranasal MK-591 (60 micrograms/32 ul lipid carrier) was administered in eight 4 ul aliquots to the nasal mucosa alternating between each nostril. The amount of drug was determined with the goal of reaching 200 nM concentration of drug which corresponds to 100× the Kd value for binding to FLAP. At 30 minutes post-dosing, blood was collected from anesthetized animals using a heparanized needle and plasma was separated from blood by centrifugation. The animals were then perfused with saline, while still under anesthesia, to remove drug in the blood of the cerebrovasculature. After perfusion the animals were euthanized and brain regions were rapidly removed. Both plasma and brain tissue samples were frozen in liquid nitrogen followed by storage at −80° C. Drug levels in the peripheral plasma and parenchymal brain tissues were assessed using a validated tandem mass spectroscopy platform. Values are expressed in ng of MK-591/mg tissue. […] The concentration of MK-591 in the cortex was 200 nM, the target concentration.

human whole blood = experiment: Human whole blood bioassay of LTB4, 5-HETE and AA production; type: cell-based
Source text: The results are for the effects of these two FLAP inhibitors on LTB4 production and 5-HETE production. It is known that indole-acetic acid FLAP inhibitors like MK-886, MK-591 display high plasma protein binding. Thus, the potencies of these FLAP inhibitors for blocking leukotrienes in vivo are about 100 fold higher than the affinity of the inhibitors for FLAP binding. The inventors developed a bioassay that closely predicts the in vivo potency of FLAP inhibitors using human whole blood. Briefly, whole blood is incubated with a calcium ionophore like […] or zymosan in the absence or presence of increasing concentrations of a FLAP inhibitor. After incubation at 37° C. for 30 minutes, the samples are centrifuged and the plasma supernatant is subjected to reverse phase liquid chromatography coupled to tandem mass spectrometry to quantify levels of LTB4, 5-HETE, and AA production. Drug IC50 values are determined by non-linear regression analysis (GraphPad Prism).). […] As FLAP inhibitors are poorly water soluble drugs, the inventors have shown that such hydrophobic drugs can be formulated in a carrier comprising one or more vegetable oils, such as olive oil, and phosphatidylserine that are found on the Generally Accepted as Safe (GRAS) list and that such drugs can then be rapidly delivered and targeted to the brain and upper spinal cord. Hanson L R, et al, Drug Delivery 19(3):149-54, 2012.

[5] = cited from earlier work; remark: listed apart in the source
[6] = test system: Primary neurons cultured from newborn rats; experiment: Apoptosis of primary neurons in vitro
Procedure: Primary neurons cultured from newborn rats were incubated in the presence of increasing concentrations of LTC4 or LTD4 for 16 hours.

[7] = test system: leukotriene LTC4 production; experiment: LTC4 levels in brain after rat fluid percussion injury (RP LC-MS/MS); type: in vivo; conditions: neutrophil depletion, 0.5 mg/kg IV four days prior to TBI; 1 hour after FPI
Procedure: Craniotomy and lateral fluid percussion injury (FPI) were performed using a previously validated and published procedure. Farias S, et al. J. Neurotraum, 26, 1977-1986, 2009; Frey L. C. et al. J. Neurosci. Methods 177, 267-272, 2009. Throughout the specification animals subjected to this protocol are referred to as having a TBI since this treatment protocol is a TBI model. Briefly, rats were anesthetized with 3-5% isoflurane, isosol, VEDCO Inc., St. Joseph, Mo., via nose cone and mounted in a stereotaxic head frame. A 3 millimeter (mm) craniotomy was created and centered at 3 mm caudal to bregma and 3.5 mm left of the sagittal suture, keeping the exposed dura intact. One steel support screw was embedded in the skull on the contralateral side. A Luer-Lock hub with an inside diameter of 3.5 mm was centered over the craniotomy and bonded to the skull with cyanoacrylate adhesive and capped. Dental acrylic, Snap, Parka, Inc., Edgewood, N.J., was poured around the huh and screw. After the acrylic hardened antibiotic ointment was applied around the cap and the animals were returned to their cages. The next day, approximately 15-20 hours later, animals were anesthetized with isoflurane in an induction chamber, immediately connected to the FPI apparatus, and received a 20 millisecond (ms) pulse of pressurized sterile saline at 2.7 atmospheres (atm) of pressure to simulate a moderate severity impact on the intact dural surface through the craniotomy before awakening from anesthesia. […] All animals received a subcutaneous injection of the analgesic, buprenorphine, 0.05 milligram/kilogram (mg/kg) Buprenex, prior to craniotomy, and subsequent injections every 12 hours for two days. Moistened food pellets were provided after injury, and all animals were monitored daily for well-being and weight changes.
Two groups of four rats each were subjected to FPI as described above. Four days prior to the FPI, each animal was briefly anesthetized for less than 5 minutes with 3-3.5% isoflurane and administered either NaCl 0.9%, 2 ml/kg IV (vehicle) or vinblastine sulfate 0.5 mg/kg IV in an identical volume. Neutrophil depletion was verified by complete cell blood counts (CBC) in vinblastine treated animals 4 days after administration. Both groups were euthanized by decapitation and the brain lipids extracted 1 hour after FPI. The amounts of LTC4 formed, measured by RP LC-MS/MS and normalized per milligram of protein, were compared between groups using one-way analysis of variance and the Student-Newman-Keuls test for multiple comparisons.
The indole FLAP inhibitor MK-886 was prepared at a dose of 2.5 milligram/milliliter (mg/ml), dissolved in dimethyl sulfoxide (DMSO) and then diluted with 0.9% saline to 10% DMSO. The rats were briefly anesthetized with 3-3.5% isoflurane and either […] at a dose of 6 mg/kg or vehicle was administered intravenously (IV) by tail vein injection. All animals were allowed to wake before undergoing additional procedures.
Cortical and hippocampal regions from ipsilateral and contralateral hemispheres were collected in 4 ml of 80% methanol, homogenized with a Dounee homogenizer, and internal standards were added to the homogenates. Protein content was measured using bicinchoninic acid assay (BCA) for protein to normalize lipid levels to the amount of tissue. Samples were centrifuged and the supernatant was collected. Samples were diluted to a final methanol concentration of lower than 15% and then the lipids were extracted using a solid phase extraction cartridge, Strata C18-E, 100 mg/1 ml, Phenomenex, Torrence Calif. The eluate, 1 ml of methanol, was dried down and reconstituted in 70 microliters (μl) of High Performance Liquid Chromotography (HPLC) solvent A, which is 8.3 mM acetic acid buffered to pH 5.7 with NH4OH, plus […] of solvent B, which is acetonitrile/methanol, 65/35, v/v. […]

Question: With `CC(C)(C)Sc1c(CC(C)(C)C(=O)O)n(Cc2ccc(Cl)cc2)c2ccc(OCc3ccc4ccccc4n3)cc12` [MK-591] as the compound, how does the “distribution between plasma and brain tissue” value [1] read?
Answer: most of the drug was in the plasma with much lower levels found in brain tissue

Question: And the “t1/2 compared with MK-886” value [2]?
Answer: longer

Question: And the “GFAP staining in cerebral cortex, external capsule and dentate gyrus” value [3]?
Answer: significantly blocked the increase

Question: What about the “Iba-1 staining in cerebral cortex, external capsule and dentate gyrus” value [3] of the same compound?
Answer: significantly blocked the increase

Question: What about the “brain localization (rank of regions by level)” value [4] of the same compound?
Answer: highest level of MK-591 was detected in the olfactory bulbs, followed by the hippocampus, and cortex

Question: What about the “levels of drug in plasma versus brain” value [4] of the same compound?
Answer: lower than the amount of drug reaching the brain

Question: What about the concentration at 30 min ([4]; rat, brain cortex, other: intranasal) of the same compound?
Answer: 200 nM

Question: What about the “potency compared with MK-886” value (human whole blood) of the same compound?
Answer: more potent

Question: What about the AA production (human whole blood; human whole blood, data not shown) of the same compound?
Answer: neither of the FLAP inhibitors effected AA production

Question: And the plasma protein binding [5]?
Answer: high

Question: With `CCCCC/C=C\C\C=C/C=C/C=C/[C@@H](SC[C@H](NC(=O)CC[C@H](N)C(=O)O)C(=O)NCC(=O)O)[C@@H](O)CCCC(=O)O` [LTC4, leukotriene C4] as the compound, how does the neuronal apoptosis ([6]; increasing concentrations, 16 hours, dose-dependent) read?
Answer: induce neuronal apoptosis

Question: Which neuronal apoptosis [6] does the source give for `CCCCC/C=C\C\C=C/C=C/C=C/[C@@H](SC[C@H](N)C(=O)NCC(=O)O)[C@@H](O)CCCC(=O)O` [LTD4, leukotriene D4] here?
Answer: induce neuronal apoptosis

Question: With `CC[C@]1(O)C[C@@H]2CN(CCc3c([nH]c4ccccc34)[C@@](C(=O)OC)(c3cc4c(cc3OC)N(C)[C@H]3[C@@](O)(C(=O)OC)[C@H](OC(C)=O)[C@]5(CC)C=CCN6CC[C@]43[C@@H]65)C2)C1` [vinblastine, vinblastine sulfate] as the compound, how does the “leukotriene production in the ipsilateral hemisphere” value [7] read?
Answer: markedly reduced
